From US6159961A, “Cephem compounds” (Fujisawa Pharmaceutical Co., Ltd., priority 1995, dated 2000)
≈ marks a conversion by molar mass, not a printed value. Read-outs that look alike come from different tables or passages of the source.

Legend:
E. faecalis = experiment: In vitro antibacterial activity (MIC), two-fold agar-plate dilution method, E. faecalis; format: cell-based; conditions: Enterococcus faecalis, HI-agar, 37° C., 20 hours, read-out: MIC (minimal inhibitory concentration)
Protocol: (§1) In vitro antibacterial activity were determined by the two-fold agar-plate dilution method as described below.
(§2) One loopful of an overnight culture of each test strain in Trypticase-soy broth (10^8 viable cells per ml) was streaked on heart infusion agar (HI-agar)containing graded concentrations of representative test compound, and the minimal inhibitory concentration (MIC) was expressed in terms of mg/ml after incubation at 37° C. for 20 hours.

[1] = tested on: Methicillin susceptible S. aureus; experiment: In vitro antibacterial activity (MIC), two-fold agar-plate dilution method, methicillin susceptible S. aureus; format: cell-based; conditions: Staphylococcus aureus, HI-agar, 37° C., 20 hours, read-out: MIC (minimal inhibitory concentration)
Protocol: as §1, §2

[2] = Urinary excretion, bile excretion and plasma level after oral administration to rats; format: in vivo, Male JCL SD rats; conditions: rat, 20 mg/kg, fasted; for dose excreted at 24 h: 0-24 hours
Protocol: Male JCL SD atrain rats (age, 6 weeks) were used. Test compound was suspended in 0.5% methyl cellurose solution. The rats were atarved overnight before dosing with 20 mg /kg. Urine samples were collected at 0 to 6 and 6 to 24 hours after oral administration. Bile samples were collected at same interval as that of urine samples after a polyethylene cannula was inserted into the bile duct. Plasma samples were obtained by heart puncture at specified times after dosing. Concentrations of test compounds were measured by the disc-plate diffusion method using E. coli ATCC 39188 as test organism and nutrient agar (Difco) as the test medium. The diluents for standard curves were prepared with plasma from rat for determining the plasma levels, with 1/15 M phosphate buffer (pH7.0) for determining the urinary and biliary levels. The plate were incubated at 37° C. for 18 hours and the zone of inhibition were mesured and the recovery rate was calculated by comparing with the standard.

[3] = bile, read-out: Biliary recovery in 24 hours
[4] = urine, read-out: Urinary recovery in 24 hours

MIC (E. faecalis)	MIC [1]	dose excreted at 24 h [2, 3]	dose excreted at 24 h [2, 4]	AUC ([2]; plasma)	Cmax ([2]; plasma)	Structure (SMILES)
2100 µg/mL (≈ 3980 µM)	230 µg/mL (≈ 436 µM)	19.6%	17%	–	–	Nc1nc(/C(=N/O)C(=O)N[C@@H]2C(=O)N3C(C(=O)O)=C(SCc4cccnc4)CS[C@H]23)c(Cl)s1 [(2)]
2900 µg/mL (≈ 5620 µM)	250 µg/mL (≈ 485 µM)	29%	39.7%	52900 ng·h/mL	21800 ng/mL	Nc1nc(/C(=N/O)C(=O)N[C@@H]2C(=O)N3C(C(=O)O)=C(SCc4cn[nH]c4)CS[C@H]23)c(Cl)s1 [(1)]
2100 µg/mL (≈ 4060 µM)	270 µg/mL (≈ 522 µM)	37.5%	7.62%	–	–	Nc1nc(/C(=N/O)C(=O)N[C@@H]2C(=O)N3C(C(=O)O)=C(SCc4cnn[nH]4)CS[C@H]23)c(Cl)s1 [(3)]
